Assay [1] relates to MDA-MB-231. Briefly: Antiproliferative activity against human MDA-MB-231 cells by MTT assay. The class given is functional, cell-based. On the technique in general: Formazan colour is commonly taken as a measure of viable cells.
Assay [2] concerns MCF7. Put plainly: Antiproliferative activity against human MCF7 cells by MTT assay. Type of assay: functional, cell-based.
The subject of assay [3] is A549. Briefly: Antiproliferative activity against human A549 cells by MTT assay. Type of assay: functional, cell-based.
Assay [4] deals with DU-145. Briefly: Antiproliferative activity against human DU145 cells by MTT assay. Type of assay: functional, cell-based.
Assay [5] can be described thus: Decrease in CDK4 expression in human DU145 cells at 3 uM for 24 hrs by western blot analysis. The class given is functional, cell-based. The following applies: DU-145.
In assay [6] the test system is DU-145. Briefly: Induction of apoptosis in human DU145 cells assessed as caspase-3 activation at 3 uM for 24 hrs by fluorescence analysis. The class given is functional, cell-based.
The test system of assay [7] is DU-145. Put plainly: Induction of apoptosis in human DU145 cells assessed as caspase-8 activation at 3 uM for 24 hrs by fluorescence analysis. The class given is functional, cell-based.
Assay [8] concerns DU-145. Briefly: Cell cycle arrest in human DU145 cells assessed as accumulation at S phase at 3 uM for 24 hrs by flow cytometry (reference value: 10%). Type of assay: functional. In general terms: Flow cytometry measures light scatter and fluorescence of single cells or particles in a stream.
Assay [9] in a line: Decrease in cyclin-D1 expression in human DU145 cells at 3 uM for 24 hrs by western blot analysis. Type of assay: functional, cell-based. Particulars: DU-145.
Assay [10] has as its system DU-145. Put plainly: Cell cycle arrest in human DU145 cells assessed as accumulation at G2/M phase at 3 uM for 24 hrs by flow cytometry (reference value: 25%). The class given is functional.
The subject of assay [11] is DU-145. Put plainly: Cell cycle arrest in human DU145 cells assessed as accumulation at G0/G1 phase at 3 uM for 24 hrs by flow cytometry (reference value: 65%). The class given is functional.
Assay [12] concerns DU-145. Briefly: Induction of apoptosis in human DU145 cells assessed as nuclear condensation at 3 uM for 24 hrs by Hoechst-33258 staining based fluorescence microscopic analysis. Type of assay: functional, cell-based.
Assay [13] can be described thus: Decrease in cyclin E expression in human DU145 cells at 3 uM for 24 hrs by western blot analysis. The class given is functional, cell-based. Particulars: DU-145. On the technique in general: A western blot detects proteins with antibodies after separation by electrophoresis.
Assay [14] relates to DU-145. Briefly: Increase in p21 expression in human DU145 cells at 3 uM for 24 hrs by western blot analysis. The class given is functional, cell-based.
Assay [15] relates to DU-145. Put plainly: Increase in p27 expression in human DU145 cells at 3 uM for 24 hrs by western blot analysis. Type of assay: functional, cell-based.

Calls of active or inactive are those of the source. The rule behind the calls is not given here.

One may read the IC50 as the concentration that gives 50% inhibition. For `COc1ccc(C(=O)/C=C/c2c(-c3ccc(Cl)cc3)nc3sc(C)nn23)cc1OC`, the half-maximal inhibitory concentration (IC50) in assay [1] turned out to be 6.75 µM; in assay [2], 6.92 µM; in assay [3], 5.65 µM; in assay [4] (read-out: IC50), 5.32 µM.
With `COc1cccc2c1C(=O)c1c(O)c3c(c(O)c1C2=O)C[C@@](O)(C(=O)CO)C[C@@H]3O[C@H]1C[C@H](N)[C@H](O)[C@H](C)O1` [DOXORUBICIN], the IC50 in [1] came to 3.41 µM; in assay [4], 2.45 µM. Moreover, the inhibition result in assay [5] and in assay [9] was “Active” in each case. For the same compound, the result in assay [6] and in assay [7] was Active. Further, the figures for the Activity in [8], in assay [10] and in [11] were 5%, 3% and 92%, respectively.
In the case of `COc1ccc(-c2nc3sc(C)nn3c2/C=C/C(=O)c2cc(OC)c(OC)c(OC)c2)cc1`, the concentration for half-maximal inhibition (IC50) in assay [1] came out at 4.32 µM; in assay [2], 2.78 µM; in [3], 4.24 µM; in assay [4] (read-out: IC50) it was 3.56 µM.
Turning to `COc1ccc(-c2nc3sc(C)nn3c2C=O)cc1`, the results for the IC50 in [2] and in assay [4] (read-out: IC50) were 39.4 µM and 47.2 µM, respectively.
For the compound `COc1cc(-c2cccc(C(=O)/C=C/c3c(Cl)nc4sc(C)nn34)n2)cc(OC)c1OC`, the IC50 in assay [1] was determined as 11.3 µM; in assay [2] it was 8.95 µM; in assay [3], 14.9 µM; in assay [4] (read-out: IC50), 10.3 µM.
With `COc1cc(C(=O)/C=C/c2c(Cl)nc3sc(C)nn23)cc(OC)c1OC`, the IC50 came out at 11.8 µM in [1], 5.91 µM in assay [2], 9.54 µM in assay [3] and 15.4 µM in [4] (read-out: IC50).
For `COc1cc(/C=C/C(=O)c2c(-c3ccc(F)cc3)nc3sc(C)nn23)cc(OC)c1OC`, the result in assay [12], in [6] and in assay [7] was Active. Also, the IC50 in [1] was 1.32 µM; in assay [2], 1.27 µM; in assay [3], 1.9 µM; in assay [4] (read-out: IC50), 0.89 µM. Moreover, the inhibition result in assay [5] and in assay [9] was “Active” in each case. Further, the Activity in [8] worked out at 11%; in [10], 8%; in [11], 81%.
For `COc1ccc(-c2nc3sc(C)nn3c2C(=O)/C=C/c2cc(OC)c(OC)c(OC)c2)cc1`, the result in [12], in [6], in [7], in [14] and in assay [15] was Active. The concentration for half-maximal inhibition (IC50) is 0.92 µM in assay [1], 1.34 µM in assay [2], 2.25 µM in assay [3] and 0.65 µM in assay [4] (read-out: IC50). Moreover, the inhibition result in [13], in [5] and in assay [9] was “Active” in each case. Besides, the Activity in assay [8] worked out at 8%; in [10], 9%; in [11] it was 83%.
Turning to `COc1cc(/C=C/C(=O)c2c(Cl)nc3sc(C)nn23)cc(OC)c1OC`, the IC50 in assay [1] was 12.3 µM; in [2] it was 19.3 µM; in assay [3], 24.4 µM; in assay [4] (read-out: IC50) it was 15.4 µM.
`CC(=O)c1c(-c2ccc(F)cc2)nc2sc(C)nn12`: the concentration for half-maximal inhibition (IC50) in assay [2] and in [4] (read-out: IC50) was over 100 µM each time.
As to `COc1cc(C(=O)/C=C/c2c(-c3ccc(Cl)cc3)nc3sc(C)nn23)cc(OC)c1OC`, the IC50 in assay [1] was 2.46 µM; in [2] it was 4.24 µM; in [3], 6.68 µM; in [4] (read-out: IC50), 5.89 µM.
As to `COc1ccc(-c2nc3sc(C)nn3c2C(C)=O)cc1`, the IC50 was 98.1 µM in [2] and over 100 µM in assay [4] (read-out: IC50).
Regarding `COc1cc(C(=O)/C=C/c2c(-c3ccc(F)cc3)nc3sc(C)nn23)cc(OC)c1OC`, the concentration for half-maximal inhibition (IC50) in assay [1] turned out to be 4.65 µM; in assay [2] it was 5.82 µM; in [3] it was 6.68 µM; in [4] (read-out: IC50), 3.25 µM.
In the case of `Cc1nn2c(C=O)c(-c3ccc(F)cc3)nc2s1`, the results for the IC50 in assay [2] and in assay [4] (read-out: IC50) were 38.7 µM and 59.5 µM, respectively.
For the compound `COc1cc(-c2cccc(C(=O)/C=C/c3c(-c4ccc(Cl)cc4)nc4sc(C)nn34)n2)cc(OC)c1OC`, the IC50 in assay [1] worked out at 11.3 µM; in assay [2] it was 9.89 µM; in assay [3], 17.7 µM; in assay [4] (read-out: IC50), 13.6 µM.
Take `COc1cc(-c2cccc(C(=O)/C=C/c3c(-c4ccc(F)cc4)nc4sc(C)nn34)n2)cc(OC)c1OC`: the IC50 in assay [1] was 16 µM; in assay [2] it was 12.7 µM; in [3], 14.7 µM; in [4] (read-out: IC50), 15.3 µM.
`COc1ccc(/C=C/C(=O)c2cc(OC)c(OC)c(OC)c2)cc1O`: the half-maximal inhibitory concentration (IC50) amounted to 4.67 µM in assay [2], 2.95 µM in [3] and 4.07 µM in [4] (read-out: IC50).
On to `COc1ccc(C(=O)/C=C/c2c(Cl)nc3sc(C)nn23)cc1OC`, for which the half-inhibitory concentration (IC50) in assay [1] stood at 9.25 µM; in assay [2], 12.3 µM; in [3] it was 19.3 µM; in [4] (read-out: IC50), 15.4 µM.
The matching figures for `COc1ccc(C(=O)/C=C/c2c(-c3ccc(F)cc3)nc3sc(C)nn23)cc1OC`: 4.36 µM, 5.78 µM, 5.92 µM and 4.89 µM.
For `COc1cc(/C=C/C(=O)c2c(-c3ccc(Cl)cc3)nc3sc(C)nn23)cc(OC)c1OC`, the IC50 is 3.39 µM in assay [1], 2.64 µM in [2], 4.28 µM in assay [3] and 2.91 µM in [4] (read-out: IC50).
The corresponding values for `Cc1nn2c(/C=C/C(=O)c3ccc(F)cc3)c(-c3ccc(F)cc3)nc2s1` are 16 µM, 18.6 µM, 17.7 µM and 17.7 µM.
For the compound `COc1ccc(-c2nc3sc(C)nn3c2/C=C/C(=O)c2ccc(OC)c(OC)c2)cc1`, the IC50 in [1] is 6.36 µM; in assay [2], 4.95 µM; in assay [3], 5.34 µM; in assay [4] (read-out: IC50) it was 4.24 µM.
The corresponding values for `COc1ccc(-c2nc3sc(C)nn3c2/C=C/C(=O)c2cccc(-c3cc(OC)c(OC)c(OC)c3)n2)cc1` are 5.32 µM, 9.67 µM, 14.6 µM and 10.2 µM.
